Calls of active or inactive are those of the source. The rule behind the calls is not given here.
Columns and labels:
Plasmodium yoelii [1] = test: Antimalarial activity against multidrug resistant Plasmodium yoelii infected in swiss mouse assessed as reduction in parasitaemia at 24 mg/kg, po administered for 4 days; assay type: functional; parameters: scale not given: the % may be the effect or the level left; conditions: time 4 day
Plasmodium yoelii [2] = test: Antimalarial activity against multidrug resistant Plasmodium yoelii infected in swiss mouse assessed as reduction in parasitaemia at 12 mg/kg, IM administered for 4 days; assay type: functional; parameters: scale not given: the % may be the effect or the level left; conditions: time 4 day
Plasmodium yoelii [3] = test: Antimalarial activity against multidrug resistant Plasmodium yoelii infected in swiss mouse assessed as reduction in parasitaemia at 6 mg/kg, IM administered for 4 days; assay type: functional; parameters: scale not given: the % may be the effect or the level left; conditions: time 4 day
Plasmodium yoelii [4] = test: Antimalarial activity against multidrug resistant Plasmodium yoelii infected in swiss mouse assessed as increase in survival time at 12 mg/kg, IM administered for 4 days and measured on day 28; assay type: functional, organism-based; conditions: time 28.0 day
Plasmodium yoelii [5] = test: Antimalarial activity against multidrug resistant Plasmodium yoelii infected in swiss mouse assessed as reduction in parasitaemia at 48 mg/kg, po administered for 4 days; assay type: functional; parameters: scale not given: the % may be the effect or the level left; conditions: time 4 day
Plasmodium yoelii [6] = test: Antimalarial activity against multidrug resistant Plasmodium yoelii infected in swiss mouse assessed as reduction in parasitaemia at 48 mg/kg, IM administered for 4 days; assay type: functional; parameters: scale not given: the % may be the effect or the level left; conditions: time 4 day
Plasmodium yoelii [7] = test: Antimalarial activity against multidrug resistant Plasmodium yoelii infected in swiss mouse assessed as increase in survival time at 48 mg/kg, po administered for 4 days and measured on day 28; assay type: functional, organism-based; conditions: time 28.0 day
Plasmodium yoelii [8] = test: Antimalarial activity against multidrug resistant Plasmodium yoelii infected in swiss mouse assessed as reduction in parasitaemia at 12 mg/kg, po administered for 4 days; assay type: functional; parameters: scale not given: the % may be the effect or the level left; conditions: time 4 day
Plasmodium yoelii [9] = test: Antimalarial activity against multidrug resistant Plasmodium yoelii infected in swiss mouse assessed as reduction in parasitaemia at 24 mg/kg, IM administered for 4 days; assay type: functional; parameters: scale not given: the % may be the effect or the level left; conditions: time 4 day
Plasmodium yoelii [10] = test: Antimalarial activity against multidrug resistant Plasmodium yoelii infected in swiss mouse assessed as increase in survival time at 12 mg/kg, po administered for 4 days and measured on day 28; assay type: functional, organism-based; conditions: time 28.0 day
Plasmodium yoelii [11] = test: Antimalarial activity against multidrug resistant Plasmodium yoelii infected in swiss mouse assessed as increase in survival time at 24 mg/kg, IM administered for 4 days and measured on day 28; assay type: functional, organism-based; conditions: time 28.0 day
Plasmodium yoelii [12] = test: Antimalarial activity against multidrug resistant Plasmodium yoelii infected in swiss mouse assessed as increase in survival time at 6 mg/kg, IM administered for 4 days and measured on day 28; assay type: functional, organism-based; conditions: time 28.0 day
Plasmodium yoelii [13] = test: Antimalarial activity against multidrug resistant Plasmodium yoelii infected in swiss mouse assessed as increase in survival time at 48 mg/kg, IM administered for 4 days and measured on day 28; assay type: functional, organism-based; conditions: time 28.0 day
Plasmodium yoelii [14] = test: Antimalarial activity against multidrug resistant Plasmodium yoelii infected in swiss mouse assessed as increase in survival time at 24 mg/kg, po administered for 4 days and measured on day 28; assay type: functional, organism-based; conditions: time 28.0 day
Plasmodium yoelii [15] = test: Antimalarial activity against multidrug resistant Plasmodium yoelii infected in swiss mouse assessed as reduction in parasitaemia at 3 mg/kg, IM administered for 4 days; assay type: functional; parameters: scale not given: the % may be the effect or the level left; conditions: time 4 day
Plasmodium yoelii [16] = test: Antimalarial activity against multidrug resistant Plasmodium yoelii infected in swiss mouse assessed as increase in survival time at 3 mg/kg, IM administered for 4 days and measured on day 28; assay type: functional, organism-based; conditions: time 28.0 day

C[C@@H]1CC[C@H]2[C@@H](C)C(=O)N(CCOCCCc3ccccc3)[C@@H]3O[C@]4(C)CC[C@@H]1[C@@]23OO4
Activity (Plasmodium yoelii [1]): 100%
Activity (Plasmodium yoelii [2]): 91%
Activity (Plasmodium yoelii [3]): 100%
Activity (Plasmodium yoelii [4]): inactive

C[C@@H]1CC[C@H]2[C@@H](C)C(=O)N(CCO)[C@@H]3O[C@@]4(C)CC[C@@H]1[C@@]23OO4
Activity (Plasmodium yoelii [1]): 10%
Activity (Plasmodium yoelii [5]): 100%
Activity (Plasmodium yoelii [6]): 100%
Activity (Plasmodium yoelii [7]): inactive

C[C@@H]1CC[C@H]2[C@@H](C)C(=O)N(CCOCc3ccccc3F)[C@@H]3O[C@@]4(C)CC[C@@H]1[C@@]23OO4
Activity (Plasmodium yoelii [1]): 100%
Activity (Plasmodium yoelii [2]): 100%

C[C@@H]1CC[C@H]2[C@@H](C)C(=O)N(NCc3ccc(Br)cc3)[C@@H]3O[C@@]4(C)CC[C@@H]1[C@@]23OO4
Activity (Plasmodium yoelii [1]): 100%
Activity (Plasmodium yoelii [2]): 100%

C[C@@H]1CC[C@H]2[C@@H](C)C(=O)N(N)[C@@H]3O[C@@]4(C)CC[C@@H]1[C@@]23OO4
Activity (Plasmodium yoelii [1]): 100%
Activity (Plasmodium yoelii [8]): 99%
Activity (Plasmodium yoelii [9]): 100%
Activity (Plasmodium yoelii [10]): inactive
Activity (Plasmodium yoelii [11]): inactive

C[C@@H]1CC[C@H]2[C@@H](C)C(=O)N(CCOCc3ccccc3)[C@@H]3O[C@]4(C)CC[C@@H]1[C@@]23OO4
Activity (Plasmodium yoelii [1]): 100%
Activity (Plasmodium yoelii [2]): 100%
Activity (Plasmodium yoelii [3]): 100%
Activity (Plasmodium yoelii [12]): inactive
Activity (Plasmodium yoelii [4]): Active

C[C@@H]1CC[C@H]2[C@@H](C)C(=O)N(O)[C@@H]3O[C@@]4(C)CC[C@@H]1[C@@]23OO4
Activity (Plasmodium yoelii [6]): 78%
Activity (Plasmodium yoelii [13]): inactive

C[C@@H]1CC[C@H]2[C@@H](C)C(=O)N(CCOCc3ccc(-c4ccccc4)cc3)[C@@H]3O[C@@]4(C)CC[C@@H]1[C@@]23OO4
Activity (Plasmodium yoelii [1]): 100%
Activity (Plasmodium yoelii [2]): 100%

C[C@@H]1CC[C@H]2[C@@H](C)C(=O)N(OCCCc3ccccc3)[C@@H]3O[C@@]4(C)CC[C@@H]1[C@@]23OO4
Activity (Plasmodium yoelii [1]): 94%
Activity (Plasmodium yoelii [2]): 81%
Activity (Plasmodium yoelii [14]): inactive
Activity (Plasmodium yoelii [4]): inactive

C[C@@H]1CC[C@H]2[C@@H](C)C(=O)N(CCOCc3ccc([N+](=O)[O-])cc3)[C@@H]3O[C@@]4(C)CC[C@@H]1[C@@]23OO4
Activity (Plasmodium yoelii [1]): 90%
Activity (Plasmodium yoelii [2]): 100%
Activity (Plasmodium yoelii [3]): 100%
Activity (Plasmodium yoelii [14]): inactive
Activity (Plasmodium yoelii [12]): inactive
Activity (Plasmodium yoelii [4]): Active

CCOC1O[C@@H]2O[C@@]3(C)CC[C@H]4[C@H](C)CC[C@@H]([C@H]1C)[C@@]24OO3 (stereo partly specified)
Activity (Plasmodium yoelii [1]): 100%
Activity (Plasmodium yoelii [2]): 100%
Activity (Plasmodium yoelii [3]): 100%
Activity (Plasmodium yoelii [15]): 100%
Activity (Plasmodium yoelii [7]): Active
Activity (Plasmodium yoelii [12]): Active
Activity (Plasmodium yoelii [4]): Active
Activity (Plasmodium yoelii [16]): inactive

C[C@@H]1CC[C@H]2[C@@H](C)C(=O)N(OCc3ccc([N+](=O)[O-])cc3)[C@@H]3O[C@@]4(C)CC[C@@H]1[C@@]23OO4
Activity (Plasmodium yoelii [1]): 100%
Activity (Plasmodium yoelii [2]): 100%
